Assay results published in US5534515A, “Pyrrolopyridazines having gastrointestinal protective effects” (BYK Gulden Lomberg Chemische Fabrik GmbH, priority 1991, dated 1996).

Test system: acid secretion of the perfused rat stomach stimulated by pentagastrin
Experiment: Investigation of the secretion-inhibiting effect on the perfused rat stomach
Format: in vivo, rat (CD rats, female)
Conditions: for Maximum inhibition of acid secretion: N = 3, vs untreated control group, pentagastrin stimulation
From the text: The effect of the compounds according to the invention after intravenous administration on the acid secretion of the perfused rat stomach stimulated by pentagastrin in vivo is shown in the following Table 2.
The abdomen of anesthesized rats (CD rats, female, 200-250 g; 1.5 g/kg i.m. of urethane) was opened after tracheotomy by a median upper abdominal incision and a PVC catheter was fixed transorally in the esophagus and a further one via the pylorus in such a way that the ends of the tubes just projected into the stomach lumen. The catheter leading from the pylorus led outwards via a side opening in the right-hand abdominal wall.
After thorough irrigation (about 50-100 ml), a flow of warm physiological NaCl solution at 37° C. was continuously passed through the stomach (0.5 ml/min, pH 6.8-6.9; Brun-Unita I). The pH (pH meter 632, glass electrode EA 147; .phi.=5 mm, Metrohm) was determined in the effluent collected (25 ml measuring cylinder) at 15 min intervals in each case and the secreted HCl by titration with a freshly prepared 0.01 N NaOH solution to pH 7 (Dosimat 655 Metrohm).
The stimulation of gastric secretion was effected by continuous infusion of 1 μg/kg (=1.65 ml/h) i.v. of pentagastrin (left femoral vein) about 30 min after the end of the operation (i.e. after determination of 2 preliminary fractions). The substances to be tested were administered intravenously (left jugular vein) in a 1 ml/kg liquid volume 60 min after the start of continuous pentagastrin infusion.
The body temperature of the animals was kept at a constant 37.8°-38° C. by infrared irradiation and heating pads (automatic, stepless control via rectal temperature sensor).
The maximum decrease in acid secretion (15 min fractions) of each treated group compared to that of the untreated control group (=100%) was used as a measure of the secretion-inhibiting effect.

SMILES: Cc1c(CO)c2cnnc(OCc3ccc(F)cc3)c2n1Cc1ccccc1 [Example 1a, 1-Benzyl-7-(4-fluorobenzyloxy)-3-hydroxymethyl-2-methylpyrrolo[2,3-d]pyridazine]
- ED50 (Rattus norvegicus, iv, dose (interpolated) which causes a maximum inhibition of HCl secretion by 50%, read-out: approx. ED50): ~1.1 µmol/kg
- Maximum inhibition of acid secretion (dose 0.3 μmol/kg i.v.): 22%
- Maximum inhibition of acid secretion (dose 1.0 μmol/kg i.v.): 52%
- Maximum inhibition of acid secretion (dose 3.0 μmol/kg i.v.): 70%
- Maximum inhibition of acid secretion (dose 10.0 μmol/kg i.v.): 94%
